Reference: ChEMBL document CHEMBL1641373, “Trishomocubane as a scaffold for the development of selective dopamine transporter (DAT) ligands” (Bioorg Med Chem Lett, 2011)
pIC50, pKi: −log10 of the molar value.

Tests used:
[1] = target: Sodium-dependent dopamine transporter (Homo sapiens, UniProt Q01959); test: Inhibition of DAT
[2] = target: Sodium-dependent noradrenaline transporter (Homo sapiens, UniProt P23975); test: Inhibition of NET
[3] = target: Sodium-dependent serotonin transporter (Homo sapiens, UniProt P31645); test: Inhibition of SERT
Sodium-dependent serotonin transporter, sequence (P31645 whole entry): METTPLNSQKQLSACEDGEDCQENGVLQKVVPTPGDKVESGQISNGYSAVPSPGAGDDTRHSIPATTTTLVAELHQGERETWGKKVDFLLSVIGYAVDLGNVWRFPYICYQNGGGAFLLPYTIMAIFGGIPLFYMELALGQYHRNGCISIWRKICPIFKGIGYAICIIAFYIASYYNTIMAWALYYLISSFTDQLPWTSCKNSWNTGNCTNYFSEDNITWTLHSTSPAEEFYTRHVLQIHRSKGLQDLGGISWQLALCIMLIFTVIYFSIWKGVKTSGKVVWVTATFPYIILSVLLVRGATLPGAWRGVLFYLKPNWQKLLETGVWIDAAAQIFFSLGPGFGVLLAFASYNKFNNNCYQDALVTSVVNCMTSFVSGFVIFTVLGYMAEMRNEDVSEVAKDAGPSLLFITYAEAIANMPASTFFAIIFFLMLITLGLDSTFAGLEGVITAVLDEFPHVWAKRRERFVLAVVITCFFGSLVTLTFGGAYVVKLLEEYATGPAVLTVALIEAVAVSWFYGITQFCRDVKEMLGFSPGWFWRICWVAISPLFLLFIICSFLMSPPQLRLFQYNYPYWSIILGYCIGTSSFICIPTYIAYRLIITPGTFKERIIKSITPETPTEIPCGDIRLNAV

Sodium-dependent noradrenaline transporter, sequence (P23975 whole entry): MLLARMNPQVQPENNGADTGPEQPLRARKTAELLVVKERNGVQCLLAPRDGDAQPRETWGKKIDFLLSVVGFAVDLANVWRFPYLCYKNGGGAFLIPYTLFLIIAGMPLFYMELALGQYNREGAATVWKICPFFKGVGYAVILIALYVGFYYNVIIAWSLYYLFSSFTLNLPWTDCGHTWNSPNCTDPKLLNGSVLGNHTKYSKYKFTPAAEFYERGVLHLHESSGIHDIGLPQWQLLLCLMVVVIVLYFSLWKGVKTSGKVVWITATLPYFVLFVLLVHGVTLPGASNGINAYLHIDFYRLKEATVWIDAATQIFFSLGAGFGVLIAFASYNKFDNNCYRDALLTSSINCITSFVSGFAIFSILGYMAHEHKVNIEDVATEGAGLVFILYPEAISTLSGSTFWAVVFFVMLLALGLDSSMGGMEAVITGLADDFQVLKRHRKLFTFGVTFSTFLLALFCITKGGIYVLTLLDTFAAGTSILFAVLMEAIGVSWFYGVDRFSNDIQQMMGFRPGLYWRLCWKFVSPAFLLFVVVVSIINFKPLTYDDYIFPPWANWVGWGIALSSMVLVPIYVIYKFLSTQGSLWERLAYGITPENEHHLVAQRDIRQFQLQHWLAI
Sodium-dependent dopamine transporter, sequence (Q01959 whole entry): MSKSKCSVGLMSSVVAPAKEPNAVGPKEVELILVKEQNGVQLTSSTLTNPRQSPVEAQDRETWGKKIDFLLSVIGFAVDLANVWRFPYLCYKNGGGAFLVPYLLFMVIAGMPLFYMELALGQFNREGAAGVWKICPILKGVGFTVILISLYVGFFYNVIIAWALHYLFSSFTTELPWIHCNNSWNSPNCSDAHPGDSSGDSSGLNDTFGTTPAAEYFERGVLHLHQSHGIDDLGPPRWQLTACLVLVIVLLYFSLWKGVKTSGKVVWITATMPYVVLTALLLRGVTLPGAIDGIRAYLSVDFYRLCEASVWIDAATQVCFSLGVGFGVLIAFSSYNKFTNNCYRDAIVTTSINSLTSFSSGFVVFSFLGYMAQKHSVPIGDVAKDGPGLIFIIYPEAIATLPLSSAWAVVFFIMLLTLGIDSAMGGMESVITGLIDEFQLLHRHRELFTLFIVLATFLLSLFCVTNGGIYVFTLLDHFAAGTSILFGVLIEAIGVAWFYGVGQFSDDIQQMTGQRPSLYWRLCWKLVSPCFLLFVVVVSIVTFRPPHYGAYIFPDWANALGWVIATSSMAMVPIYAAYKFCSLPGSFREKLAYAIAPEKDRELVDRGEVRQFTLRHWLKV

Structure (SMILES) | pIC50 [1] | pIC50 [2] | pIC50 [3] | pKi [1] | pKi [2] | pKi [3]
CN1[C@H]2CC[C@@H]1[C@@H](C(=O)N1CCCC1)[C@@H](c1ccc(I)cc1)C2 | 9.43 | 5.76 | 6.00 | – | – | –
COC(=O)[C@H]1[C@@H](c2ccc(C)cc2)C[C@H]2CC[C@@H]1N2C/C=C/I | – | – | – | 7.77 | < 6.00 | 6.30
CN(C)C[C@H]1C2CCC(CC2)[C@H]1c1ccc(Cl)c(Cl)c1 | – | – | – | 8.14 | 7.36 | 7.24
COC(=O)[C@@H]1C2CCC(C[C@@H]1c1ccc(C)cc1)N2C/C=C/CF (some centres undefined) | 8.62 | < 6.00 | < 6.00 | – | – | –
NCCN1[C@@H]2CC[C@H]1C[C@@H](NC(c1ccc(F)cc1)c1ccc(F)cc1)C2 | – | – | – | 7.90 | – | –
CCCCC1=C(c2ccc(Cl)cc2)C2CCN1CC2 | – | – | – | 7.85 | – | –
